Measurements published in patent publication US4822892A, “N-heterocyclic platinum complexes” (Chugai Seiyaku Kabushiki Kaisha, priority 1984, dated 1989).

Assays:
Colon 26 carcinoma [1] = assay: In vivo antitumor activity against Colon 26 carcinoma, single i.p. administration (Experiment 1); set-up: species or system CDF1/Crj strain male mouse; conditions: tumor weighed 10 days after administration
Text: A small piece of Colon 26 tumor (1-2 mm^3) was subcutaneously implanted in a lateral region of abdomen of a CDF1 /Crj strain male mouse (6 weeks old). Four days after the implantation, mice with the almost same size of tumor were divided into groups of 5-6 members each, and each mouse was intraperitoneally administered the test compound. Ten days after the administration, each of the mice was sacrificed, and the tumor was weighed to calculate the growth inhibitory ratio (GIR) by the following equation: [formula] wherein C and T represent the mean weights of tumor of the control group and the treated group, respectively.
Cisplatin (CDDP) which is a known compound was used as a comparison.

[2] = Test on side-effects: body weight and BUN (Experiment 4); format: in vivo, BDF1/Crj strain male mice
Text: BDF1 /Crj strain male mice (6 weeks old) were intraperitoneally administered the test compound, and 1, 3 and 5 days after the administration, 3 mice were saceificed to determine the body weight and the level of urea nitrogen in blood (abbreviated as BUN).

plasma proteins = assay: In vitro binding to plasma proteins (Experiment 3); format: in vitro ADME, SD strain rat; conditions: 37° C., 5 μg/ml of Pt, rat plasma
Description: A solution of the test compound was added to plasma obtained from SD strain rat at a ratio of 1:19 by volume which corresponded to 5 μg/ml of Pt. The mixture was incubated at 37° C. under dark. At a predetermined time, the mixture was sampled, and filtered with a molecular sieve membrane (manufactured by Amico Centriflow PMS) under centrifugation. The Pt content in the filtrate unbound Pt was assayed by an atomic absorption spectrophotometry.

[3] = cited from earlier work
Colon 26 carcinoma [4] = assay: In vivo antitumor activity against Colon 26 carcinoma, i.p. on days 4, 6 and 8 (Experiment 2); set-up: species or system CDF1/Crj strain male mouse; conditions: 40 mg/kg i.p. on day 4, 6 and 8 after implantation; tumor weighed day 14
Description: A small piece of Colon 26 tumor (1-2 mm^3) was subcutaneously implanted in a lateral region of abdomen of a CDF1 /Crj strain male mouse (7 weeks old). Four days after the implantation, mice with the almost same size of tumor were divided into groups of 5-6 members each, and each mouse was intraperitoneally administered the test compound on day 4, 6, and 8 after implantation in a dose of 40 mg/kg one day. Fourteen days after the implantation, each mouse was sacrificed, and the tumor thereof was weighed to calculate the GIR (%) by the following equation. [formula] where C and T represent the mean weights of tumor of the control group and the group administered the test compound, respectively.

[5] = 12 mg/kg i.p., 1 day after administration
[6] = 12 mg/kg i.p., 3 days after administration
[7] = 12 mg/kg i.p., 5 days after administration
[8] = 60 mg/kg i.p., 1 day after administration
[9] = 60 mg/kg i.p., 3 days after administration
[10] = 60 mg/kg i.p., 5 days after administration

Compound | CIR (Colon 26 carcinoma [4]) [%] | GIR (growth inhibitory ratio) (Colon 26 carcinoma [1]; 40 mg/kg i.p. single) [%] | GIR (growth inhibitory ratio) (Colon 26 carcinoma [1]; 60 mg/kg i.p. single) [%] | GIR (growth inhibitory ratio) (Colon 26 carcinoma [1]; 80 mg/kg i.p. single) [%] | GIR (growth inhibitory ratio) (Colon 26 carcinoma [1]; 120 mg/kg i.p. single) [%] | GIR (growth inhibitory ratio) (Colon 26 carcinoma [1]; 160 mg/kg i.p. single) | BUN (urea nitrogen in blood, mean ± SD) [2, 8] [mg/dL] | Body weight (mean ± SD) [2, 8] [g] | BUN (urea nitrogen in blood, mean ± SD) [2, 9] [mg/dL] | Body weight (mean ± SD) [2, 9] [g] | BUN (urea nitrogen in blood, mean ± SD) [2, 10] [mg/dL] | Body weight (mean ± SD) [2, 10] [g] | further results
[NH2][Pt]([NH2])([Cl])[Cl] [CDDP, cisplatin, reference compound] |  |  |  |  |  |  |  |  |  |  |  |  | GIR (growth inhibitory ratio) (Colon 26 carcinoma [1]; 4 mg/kg i.p. single): 26%; GIR (growth inhibitory ratio) (Colon 26 carcinoma [1]; 6 mg/kg i.p. single): 51%; GIR (growth inhibitory ratio) (Colon 26 carcinoma [1]; 8 mg/kg i.p. single): 62%; GIR (growth inhibitory ratio) (Colon 26 carcinoma [1]; 12 mg/kg i.p. single): 79%; GIR (growth inhibitory ratio) (Colon 26 carcinoma [1]; 16 mg/kg i.p. single): died; BUN (urea nitrogen in blood, mean ± SD) [2, 5]: 23.3 ± 4.7 mg/dL; Body weight (mean ± SD) [2, 5]: 24.6 ± 1.1 g; BUN (urea nitrogen in blood, mean ± SD) [2, 6]: 38.5 ± 28.9 mg/dL; Body weight (mean ± SD) [2, 6]: 22.55 ± 1.1 g; BUN (urea nitrogen in blood, mean ± SD) [2, 7]: 65.2 ± 31.5 mg/dL; Body weight (mean ± SD) [2, 7]: 19.0 ± 1.5 g; Percent binding to plasma proteins (plasma proteins; 1 hr incubation): 16%; Percent binding to plasma proteins (plasma proteins; 4 hr incubation): 62%; Percent binding to plasma proteins (plasma proteins; 8 hr incubation): 86%; Percent binding to plasma proteins (plasma proteins; 24 hr incubation): 93%; antitumor activity (in words) ([3]; Rosenberg et al, Nature 222, 385 (1969)): has antitumor activity; nephrotoxicity (in words) ([3]; known platinum complexes including CDDP): very serious nephrotoxicity
NC[C@H]1CCCN1.O=C([O-])C1(C(=O)[O-])CCC1.[Pt+2] [Compound 1, 1,1-cyclobutanedicarboxylate(2-aminomethylpyrrolidine)platinum(II)] | 98 | 79 | 87 | 98 | 97 | died |  |  |  |  |  |  | 
(R)-1,1-cyclobutanedicarboxylate(2-aminomethylpyrrolidine)platinum(II) [Compound 3] | 95 | 70 | 85 | 90 | 95 | died | 18.3 ± 3.1 | 23.4 ± 1.5 | 13.8 ± 1.8 | 20.1 ± 1.2 | 13.8 ± 7.6 | 17.5 ± 0.7 | 
(S)-1,1-cyclobutanedicarboxylate(2-aminomethylpyrrolidine)platinum(II) [Compound 2] | 99 | 73 | 88 | 94 | 98 | died | 20.0 ± 2.6 | 23.1 ± 1.4 | 17.7 ± 3.1 | 19.9 ± 1.6 | 15.4 ± 5.5 | 17.9 ± 1.1 | 
cis-dichloro-trans-dihydroxy(2-aminomethylazetidine)platinum(IV) [Compound 19] |  | 60 | 77 | 85 | 92 | 95% |  |  |  |  |  |  | 
